This is an account of results in US11453632B2, “1-phenyl-2-phenylethane derivative” (KAO CORPORATION, priority 2018, dated 2022).

Data set [1] relates to prostate of testosterone-induced prostatic hyperplasia rat. The data set is described as follows: Efficacy on prostate in testosterone-induced prostatic hyperplasia rat. Conditions: testosterone 3 mg/kg/day plus test substance 0.1 or 1 mg/kg body weight/day, subcutaneous osmotic pump, 28 days, vs testosterone alone. The format is in vivo. From the text: 12-week-old male Slc:SD (SPF) rats were obtained from Japan SLC, Inc. An acclimatization period was established for 1 week after receipt. During the acclimatization period, the rats were allowed to freely ingest a powder diet (AIN-93G).
2) Implantation of Osmotic Pump
After body weight measurement, back hair was shaved under isoflurane (AbbVie GK) inhalation anesthesia, and carprofen was subcutaneously administered to the rats. Then, an incision of approximately 1 cm at the maximum was made on the cranial side in the back. An osmotic minipump Alzet (Muromachi Kikai Co., Ltd.) containing testosterone and compound 17-F or finasteride (Sigma-Aldrich Co. LLC) was subcutaneously implanted. From this osmotic pump, testosterone (3 mg/kg body weight/day) (Sigma-Aldrich Co. LLC) and compound 17-F (0.1 mg/body weight/day or 1 mg/kg body weight/day) or finasteride (0.1 mg/kg body weight/day or 1 mg/kg body weight/day) were continuously administered for 28 days. Since the implantation of the osmotic pump, the rats were allowed to freely ingest customized feed AIN-93G (Oriental Yeast Co., Ltd.) free from components derived from soybeans.
3) Photographing of Skin and Harvesting of Prostate
After a lapse of 28 days, body weights were measured, and subsequently, the rats were euthanized by blood letting under isoflurane anesthesia. Back hair was shaved, followed by photographing. Then, the abdominal cavity was opened to harvest the prostate on the ventral side. Wet weights were measured.

The test system of data set [2] is tail skin temperature of ovariectomized rat. The data set is described as follows: Tail skin temperature in ovariectomized (OVX) rat. Type of data set: in vivo. The method, then: (§1) 8-week-old female Crl:CD (SD) rats were obtained from Charles River Laboratories Japan, Inc. and individually identified by the ear punching method on the receipt date. Then, an acclimatization period was established for 1 week. The animals were raised in a rearing room under a set environment involving a temperature of 22±3° C., a humidity of 50±20%, air ventilation from 13 to 17 times/hour, and a lighting time from 8:00 to 20:00. During the acclimatization period, the rats were allowed to freely ingest solid feed CRF-1 (Oriental Yeast Co., Ltd.). Since the feeding with CRF-1, the rats were allowed to freely ingest customized feed AIN-93G (Oriental Yeast Co., Ltd.) free from components derived from soybeans.
1-2) Sham Surgery and Oophorectomy Surgery (OVX)
(§2) On the end date of acclimatization and the following day, the flank cavity was opened under isoflurane anesthesia to harvest the right and left ovaries including fallopian tubes. Other non-OVX rats were subjected to only opening and suture (sham surgery). Immediately thereafter, an antibiotic was subcutaneously administered at a dose of 100 μl/animal. After the surgery, the sham surgery or OVX animals were given customized feed and raised for approximately 1 week.
1-3) Acclimatization to Skin Temperature Measurement Environment […]
Before administration of a test substance and from 12:00 to 3:00 (dark phase) of 3, 5, 7, 14, and 21 days after the start of administration, the rats were placed in restrainers without anesthesia, and skin temperatures were measured at a site 3 cm on the tip side from the tail root using the infrared radiation thermometer. […]
(§3) Skin temperatures differed largely among individuals, and the Smirnov-Grubbs test was conducted in order to exclude outliers beforehand. Results of measuring tail skin temperatures and results of measuring uterus weights were statistically analyzed by testing using the Dunnett's test.

For another data set, the target named is T1, ERα (Homo sapiens, UniProt P03372).
T1 construct: host or cells: HEK293
T1 sequence (P03372 1-595): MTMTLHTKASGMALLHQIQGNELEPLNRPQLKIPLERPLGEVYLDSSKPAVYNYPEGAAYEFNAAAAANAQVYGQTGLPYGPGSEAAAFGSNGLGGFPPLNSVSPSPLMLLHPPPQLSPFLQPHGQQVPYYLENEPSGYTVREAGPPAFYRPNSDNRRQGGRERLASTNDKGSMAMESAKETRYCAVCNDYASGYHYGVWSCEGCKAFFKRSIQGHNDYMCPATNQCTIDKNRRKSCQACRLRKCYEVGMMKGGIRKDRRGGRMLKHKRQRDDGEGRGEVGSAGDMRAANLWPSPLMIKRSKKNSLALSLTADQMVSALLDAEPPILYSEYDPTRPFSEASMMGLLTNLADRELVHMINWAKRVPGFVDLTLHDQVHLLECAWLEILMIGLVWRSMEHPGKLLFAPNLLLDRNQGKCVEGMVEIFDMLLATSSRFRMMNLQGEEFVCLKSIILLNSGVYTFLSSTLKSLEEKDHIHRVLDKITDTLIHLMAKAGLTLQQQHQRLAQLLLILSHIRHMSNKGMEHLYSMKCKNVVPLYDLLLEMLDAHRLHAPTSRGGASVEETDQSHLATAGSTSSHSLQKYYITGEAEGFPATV
The data set is described as follows: Ability to activate transcription mediated by ERα (pcDNA3-ERα, pERE luciferase, HEK293 cells). Type of data set: cell-based. Conditions: negative control 0.004573. The protocol:
1) Experimental Method (Measurement of Transcriptional Activity Mediated by ERs)
HEK293 cells were inoculated at a cell density of 4.0×10^4 cells/well to a 96-well plate. After 12 hours therefrom, the medium was replaced with a culture solution (DMEM containing 5% (v/v) charcoal-treated serum). The cells were cotransfected with pcDNA3-ERα or pcDNA3-ERβ (Promega Corp.) and pERE and pRL-CMV (Promega Corp.) using Lipofectamine 2000 (Invitrogen Corp.) according to the protocol attached to the product. 24 hours after transfection, the medium was replaced with a culture medium containing a test sample, followed by culture for another 24 hours. Then, luciferase activity was measured using Dual-Glo™ Luciferase Assay System (Promega Corp.) according to the attached protocol. The luminescence intensity of firefly luciferase (index for the ability to activate transcription mediated by ERE) was divided by the luminescence intensity of Renilla reniformis luciferase (index for the transfection efficiency of the plasmids) to calculate a relative light unit (RLU).

The subject of data set [3] is uterus of ovariectomized rat. The data set is described as follows: Uterus weight in ovariectomized (OVX) rat. The format is in vivo. The method, then: as §1, §2
From 1.5 hours before a shift from the light phase to the dark phase (18:30), a negative solvent (DMSO) or a test substance was subcutaneously administered at a dose of 0.5 ml/kg to the back of the neck according to Table 3 described below using a syringe and an injection needle.
After the completion of all procedures of measurement and analysis, the rats were euthanized by blood letting under isoflurane anesthesia, and the uterus was harvested. Wet weights were measured.
as §3

In the case of `Oc1ccc(CC(C=C(F)F)c2ccc(O)cc2F)c(F)c1` (stereo not shown) [Compound 17-F, 4,4′-(4,4-difluorobut-3-ene-1,2-diyl)bis(3-fluorophenol)], in data set [1], the “size of the prostate (visual, FIG. 1)” value is “Concentration-dependent decrease in the size of the prostate”. Further, in data set [1], the “weight of the prostate corrected with the body weight (FIG. 2)” value was “decreased to almost the same level as in the DMSO administration group”. Also, the “tail skin temperature, raw value and changed temperature from the initial value” in data set [2] (4, 40, and 400 μg/kg subcutaneous, 3 days after the start of administration, vs negative solvent) is “confirmed to decrease”. Also, the “tail skin temperature, drug efficacy” value in data set [2] (subcutaneous, 5 days after the start of administration) is on record as “temporarily disappeared”. Also, in data set [2] (subcutaneous, 7 days after the start of administration), the “tail skin temperature, raw value and changed temperature” value was “confirmed to decrease again”. In addition, the “relative light unit (RLU), transcription activation ERα” value at ERα (0.1 pM) is reported as 0.008213; on ERα (1 pM), 0.01023; at ERα (10 pM), 0.01835; on ERα (100 pM), 0.04125; at ERα (1000 pM) it was 0.06202; on ERα (10000 pM), 0.05401. Besides, the “uterus wet weight (FIG. 6)” value in data set [3] (4 μg/kg/day subcutaneous, vs negative solvent group) is given as “no change in uterus weight was confirmed”; in data set [3] (increased dose of compound 17-F (40, 400 μg/kg/day) subcutaneous), “elevated in a concentration-dependent manner”.
